Test results reported in publication PMC10657444, “Design and evaluation of tadpole-like conformational antimicrobial peptides” (Communications Biology, 2023).
≈ marks a conversion by molar mass, not a printed value. Where two headings read alike, the source gives them in different places.

System: K. pneumoniae ATCC 700603
Experiment: microbe, parasite or virus in culture
Assay type: cell-based, Klebsiella pneumoniae
Details: for MIC: Klebsiella pneumoniae
Experimental: MRSA USA 300 and K. pneumoniae ATCC 700603 were employed to assess the development of resistance. From inoculated microtiter panels, an aliquot of the well with the highest concentration permitting growth was taken and back diluted in fresh media to a turbidity of a 0.5 McFarland standard. This suspension was then further diluted and used to inoculate a fresh MIC panel resulting in a final concentration of 5 × 10^6 CFU/mL. Panels were incubated according to CLSI guidelines (M07, 11th edition, 2018), MICs were recorded and the next inoculum was prepared from the well containing the highest concentration of drug that allowed growth in identical fashion as described above.

O=C(O)c1cn(C2CC2)c2cc(N3CCNCC3)c(F)cc2c1=O [ciprofloxacin, reference compound]
MIC (ATCC700603, 0 h, read-out: Concentration (MIC in drug resistance assay), K. pneumoniae ATCC 700603, day 0): 0.25 µg/mL (≈ 0.754 µM) | MIC (ATCC700603, 24 h, read-out: Concentration (MIC in drug resistance assay), K. pneumoniae ATCC 700603, day 1): 0.5 µg/mL (≈ 1.51 µM) | MIC (ATCC700603, 48 h, read-out: Concentration (MIC in drug resistance assay), K. pneumoniae ATCC 700603, day 2): 1 µg/mL (≈ 3.02 µM) | MIC (ATCC700603, 72 h, read-out: Concentration (MIC in drug resistance assay), K. pneumoniae ATCC 700603, day 3): 0.5 µg/mL (≈ 1.51 µM) | MIC (ATCC700603, 96 h, read-out: Concentration (MIC in drug resistance assay), K. pneumoniae ATCC 700603, day 4): 1 µg/mL (≈ 3.02 µM) | MIC (ATCC700603, 120 h, read-out: Concentration (MIC in drug resistance assay), K. pneumoniae ATCC 700603, day 5): 0.5 µg/mL (≈ 1.51 µM) | MIC (ATCC700603, 144 h, read-out: Concentration (MIC in drug resistance assay), K. pneumoniae ATCC 700603, day 6): 1 µg/mL (≈ 3.02 µM) | MIC (ATCC700603, 168 h, read-out: Concentration (MIC in drug resistance assay), K. pneumoniae ATCC 700603, day 7): 1 µg/mL (≈ 3.02 µM) | MIC (ATCC700603, 192 h, read-out: Concentration (MIC in drug resistance assay), K. pneumoniae ATCC 700603, day 8): 2 µg/mL (≈ 6.04 µM) | MIC (ATCC700603, 216 h, read-out: Concentration (MIC in drug resistance assay), K. pneumoniae ATCC 700603, day 9): 1 µg/mL (≈ 3.02 µM) | MIC (ATCC700603, 240 h, read-out: Concentration (MIC in drug resistance assay), K. pneumoniae ATCC 700603, day 10): 1 µg/mL (≈ 3.02 µM) | MIC (ATCC700603, 264 h, read-out: Concentration (MIC in drug resistance assay), K. pneumoniae ATCC 700603, day 11): 2 µg/mL (≈ 6.04 µM) | MIC (ATCC700603, 288 h, read-out: Concentration (MIC in drug resistance assay), K. pneumoniae ATCC 700603, day 12): 2 µg/mL (≈ 6.04 µM) | MIC (ATCC700603, 312 h, read-out: Concentration (MIC in drug resistance assay), K. pneumoniae ATCC 700603, day 13): 2 µg/mL (≈ 6.04 µM) | MIC (ATCC700603, 336 h, read-out: Concentration (MIC in drug resistance assay), K. pneumoniae ATCC 700603, day 14): 4 µg/mL (≈ 12.1 µM) | MIC (ATCC700603, 360 h, read-out: Concentration (MIC in drug resistance assay), K. pneumoniae ATCC 700603, day 15): 4 µg/mL (≈ 12.1 µM) | MIC (ATCC700603, 384 h, read-out: Concentration (MIC in drug resistance assay), K. pneumoniae ATCC 700603, day 16): 4 µg/mL (≈ 12.1 µM) | MIC (ATCC700603, 408 h, read-out: Concentration (MIC in drug resistance assay), K. pneumoniae ATCC 700603, day 17): 4 µg/mL (≈ 12.1 µM) | MIC (ATCC700603, 432 h, read-out: Concentration (MIC in drug resistance assay), K. pneumoniae ATCC 700603, day 18): 4 µg/mL (≈ 12.1 µM) | MIC (ATCC700603, 456 h, read-out: Concentration (MIC in drug resistance assay), K. pneumoniae ATCC 700603, day 19): 4 µg/mL (≈ 12.1 µM) | MIC (ATCC700603, 480 h, read-out: Concentration (MIC in drug resistance assay), K. pneumoniae ATCC 700603, day 20): 8 µg/mL (≈ 24.1 µM) | MIC (ATCC700603, 504 h, read-out: Concentration (MIC in drug resistance assay), K. pneumoniae ATCC 700603, day 21): 4 µg/mL (≈ 12.1 µM) | MIC (ATCC700603, 528 h, read-out: Concentration (MIC in drug resistance assay), K. pneumoniae ATCC 700603, day 22): 4 µg/mL (≈ 12.1 µM) | MIC (ATCC700603, 552 h, read-out: Concentration (MIC in drug resistance assay), K. pneumoniae ATCC 700603, day 23): 4 µg/mL (≈ 12.1 µM) | MIC (ATCC700603, 576 h, read-out: Concentration (MIC in drug resistance assay), K. pneumoniae ATCC 700603, day 24): 4 µg/mL (≈ 12.1 µM) | MIC (ATCC700603, 600 h, read-out: Concentration (MIC in drug resistance assay), K. pneumoniae ATCC 700603, day 25): 4 µg/mL (≈ 12.1 µM) | MIC (ATCC700603, 624 h, read-out: Concentration (MIC in drug resistance assay), K. pneumoniae ATCC 700603, day 26): 8 µg/mL (≈ 24.1 µM) | MIC (ATCC700603, 648 h, read-out: Concentration (MIC in drug resistance assay), K. pneumoniae ATCC 700603, day 27): 8 µg/mL (≈ 24.1 µM) | MIC (ATCC700603, 672 h, read-out: Concentration (MIC in drug resistance assay), K. pneumoniae ATCC 700603, day 28): 8 µg/mL (≈ 24.1 µM) | MIC (ATCC700603, 696 h, read-out: Concentration (MIC in drug resistance assay), K. pneumoniae ATCC 700603, day 29): 8 µg/mL (≈ 24.1 µM) | MIC (ATCC700603, read-out: Concentration (MIC in drug resistance assay), K. pneumoniae ATCC 700603, day 30): 8 µg/mL (≈ 24.1 µM) | MIC (ATCC700603, read-out: Concentration (MIC in drug resistance assay), K. pneumoniae ATCC 700603, day 31): 8 µg/mL (≈ 24.1 µM) | MIC (ATCC700603, read-out: Concentration (MIC in drug resistance assay), K. pneumoniae ATCC 700603, day 32): 8 µg/mL (≈ 24.1 µM) | MIC (ATCC700603, read-out: Concentration (MIC in drug resistance assay), K. pneumoniae ATCC 700603, day 33): 8 µg/mL (≈ 24.1 µM) | MIC (ATCC700603, read-out: Concentration (MIC in drug resistance assay), K. pneumoniae ATCC 700603, day 34): 8 µg/mL (≈ 24.1 µM) | MIC (ATCC700603, read-out: Concentration (MIC in drug resistance assay), K. pneumoniae ATCC 700603, day 35): 16 µg/mL (≈ 48.3 µM) | MIC (ATCC700603, read-out: Concentration (MIC in drug resistance assay), K. pneumoniae ATCC 700603, day 36): 16 µg/mL (≈ 48.3 µM) | MIC (ATCC700603, read-out: Concentration (MIC in drug resistance assay), K. pneumoniae ATCC 700603, day 37): 16 µg/mL (≈ 48.3 µM) | MIC (ATCC700603, read-out: Concentration (MIC in drug resistance assay), K. pneumoniae ATCC 700603, day 38): 16 µg/mL (≈ 48.3 µM) | MIC (ATCC700603, read-out: Concentration (MIC in drug resistance assay), K. pneumoniae ATCC 700603, day 39): 16 µg/mL (≈ 48.3 µM) | MIC (ATCC700603, read-out: Concentration (MIC in drug resistance assay), K. pneumoniae ATCC 700603, day 40): 16 µg/mL (≈ 48.3 µM) | increase in MIC after 40 passages (serial passage at sub-MIC): 64 fold
